Here are results for one compound from ChEMBL document CHEMBL3763072, “Structure activity relationship studies on chemically non-reactive glycine sulfonamide inhibitors of diacylglycerol lipase” (Bioorg Med Chem, 2016).

Activity calls are given as the source filed them. The rule behind the calls is not given here.

In data set [1] the target is T1, Pancreatic triacylglycerol lipase (Sus scrofa) (UniProt P00591).
T1 sequence (whole entry): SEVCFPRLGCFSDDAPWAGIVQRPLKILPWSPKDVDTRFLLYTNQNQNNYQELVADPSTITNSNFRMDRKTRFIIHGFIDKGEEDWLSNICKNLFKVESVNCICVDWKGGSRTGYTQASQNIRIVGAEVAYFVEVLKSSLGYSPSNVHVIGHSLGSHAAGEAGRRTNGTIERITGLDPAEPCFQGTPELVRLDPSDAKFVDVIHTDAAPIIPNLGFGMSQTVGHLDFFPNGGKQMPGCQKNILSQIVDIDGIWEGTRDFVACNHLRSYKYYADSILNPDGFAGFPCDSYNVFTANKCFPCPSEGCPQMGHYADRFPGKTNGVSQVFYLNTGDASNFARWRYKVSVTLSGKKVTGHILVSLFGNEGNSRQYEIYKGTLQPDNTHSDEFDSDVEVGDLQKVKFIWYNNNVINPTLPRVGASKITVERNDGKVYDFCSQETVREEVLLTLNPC
Put plainly: Inhibition of porcine pancreatic lipase at 30 uM.

In data set [2] the target is T2, Monoglyceride lipase (Homo sapiens) (UniProt Q99685).
T2 sequence (whole entry): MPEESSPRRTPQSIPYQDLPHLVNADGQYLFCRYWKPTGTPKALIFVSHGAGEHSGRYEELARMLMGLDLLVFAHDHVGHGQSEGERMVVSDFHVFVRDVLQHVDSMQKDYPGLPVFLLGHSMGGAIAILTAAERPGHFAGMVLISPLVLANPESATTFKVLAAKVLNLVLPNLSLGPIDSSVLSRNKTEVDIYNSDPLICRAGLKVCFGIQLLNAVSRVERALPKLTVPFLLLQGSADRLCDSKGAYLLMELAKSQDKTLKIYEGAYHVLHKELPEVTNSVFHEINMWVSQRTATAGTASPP
Put plainly: Inhibition of MAGL (unknown origin) at 30 uM.

For data set [3], the target named is T3, Diacylglycerol lipase-beta (Homo sapiens, UniProt Q8NCG7).
T3 sequence (Q8NCG7 whole entry): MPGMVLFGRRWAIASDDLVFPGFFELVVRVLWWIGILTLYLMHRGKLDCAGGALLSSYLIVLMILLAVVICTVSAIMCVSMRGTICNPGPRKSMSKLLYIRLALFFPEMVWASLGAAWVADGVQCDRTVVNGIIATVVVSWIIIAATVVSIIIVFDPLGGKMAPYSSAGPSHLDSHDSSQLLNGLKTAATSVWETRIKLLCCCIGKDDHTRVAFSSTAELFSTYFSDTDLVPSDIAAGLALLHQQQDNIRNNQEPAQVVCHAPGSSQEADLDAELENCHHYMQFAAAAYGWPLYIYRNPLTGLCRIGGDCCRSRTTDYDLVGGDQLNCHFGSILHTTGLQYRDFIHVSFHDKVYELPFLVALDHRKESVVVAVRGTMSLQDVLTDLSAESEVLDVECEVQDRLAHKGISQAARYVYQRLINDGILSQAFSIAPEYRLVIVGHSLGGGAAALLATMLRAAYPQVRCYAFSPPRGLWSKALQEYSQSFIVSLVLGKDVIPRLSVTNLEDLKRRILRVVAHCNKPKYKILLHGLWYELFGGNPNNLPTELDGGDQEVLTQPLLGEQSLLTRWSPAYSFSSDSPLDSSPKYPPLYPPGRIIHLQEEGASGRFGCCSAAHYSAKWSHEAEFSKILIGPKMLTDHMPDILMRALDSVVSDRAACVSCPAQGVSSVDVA
Kind of data set: Inhibition of DAGLbeta (unknown origin).

Data set [4] can be described thus: Metabolic stability in human liver microsomes assessed as residual compound at 3 uM preincubated for 2 mins followed by NADPH addition measured after 10 mins by LC-MS analysis. The data set is classed as ADME. To be noted: read-out: Stability. Background: Liver microsomes are vesicles of endoplasmic reticulum, rich in cytochrome P450 enzymes.
Data set [5] in a line: Metabolic stability in rat liver microsomes assessed as residual compound at 3 uM preincubated for 2 mins followed by NADPH addition measured after 10 mins by LC-MS analysis. Type of data set: ADME. Particulars: read-out: Stability.
A short description of data set [6]: Metabolic stability in mouse liver microsomes assessed as residual compound at 3 uM preincubated for 2 mins followed by NADPH addition measured after 10 mins by LC-MS analysis. Particulars: read-out: Stability. Type of data set: ADME.
Data set [7] concerns the target T4, Nuclear receptor subfamily 1 group I member 2 (Homo sapiens, UniProt O75469).
T4 sequence (O75469 whole entry): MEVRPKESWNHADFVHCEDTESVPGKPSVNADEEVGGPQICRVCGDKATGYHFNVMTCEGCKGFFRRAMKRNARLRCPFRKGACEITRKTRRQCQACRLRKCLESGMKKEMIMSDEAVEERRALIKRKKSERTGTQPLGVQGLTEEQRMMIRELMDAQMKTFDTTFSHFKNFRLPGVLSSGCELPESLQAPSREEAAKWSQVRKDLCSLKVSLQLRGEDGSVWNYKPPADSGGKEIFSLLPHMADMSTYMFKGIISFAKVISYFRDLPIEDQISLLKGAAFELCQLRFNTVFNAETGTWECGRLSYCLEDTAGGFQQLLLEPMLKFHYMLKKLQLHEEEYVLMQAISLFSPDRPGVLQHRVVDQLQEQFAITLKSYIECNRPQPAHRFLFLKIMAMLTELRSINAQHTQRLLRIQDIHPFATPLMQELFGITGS
Put plainly: Transactivation of human PXR expressed in human HepG2 cells after […] by luciferase reporter gene assay. The data set is classed as ADME, cell-based. In general terms: A reporter such as luciferase makes a cellular process visible.

The nature of data set [8]: Half life in mouse at 1 mg/kg, iv. The data set is classed as ADME, organism-based. Particulars: in vivo.
Data set [9] can be described thus: Half life in mouse at 10 mg/kg, po. To be noted: in vivo. The data set is classed as ADME, organism-based.
Data set [10] in a line: Half life in mouse at 10 mg/kg, ip. The data set is classed as ADME, organism-based. Particulars: in vivo.
A short description of data set [11]: AUC(infinity) in mouse at 10 mg/kg, po. The data set is classed as ADME, organism-based. On the set-up: dose 10 mg/kg, route oral, time infinity. Particulars: in vivo.
A short description of data set [12]: Cmax in mouse at 1 mg/kg, iv. The data set is classed as ADME, organism-based. The arrangement: dose 1 mg/kg, route intravenous. To be noted: in vivo.
The nature of data set [13]: Cmax in mouse at 10 mg/kg, po. To be noted: in vivo. The arrangement: dose 10 mg/kg, route oral. The data set is classed as ADME, organism-based.
Data set [14] in a line: Cmax in mouse at 10 mg/kg, ip. The data set is classed as ADME, organism-based. The arrangement: dose 10 mg/kg, route intraperitoneal. To be noted: in vivo.
Data set [15] is described as follows: Tmax in mouse at 10 mg/kg, po. Type of data set: ADME, organism-based. To be noted: in vivo.
Data set [16] is described as follows: Tmax in mouse at 10 mg/kg, ip. Type of data set: ADME, organism-based. Particulars: in vivo.
The test system of data set [17] is Mus musculus. Put plainly: AUC(infinity) in mouse at 1 mg/kg, iv. The data set is classed as ADME, organism-based. On the set-up: dose 1 mg/kg, route intravenous, time infinity. Particulars: in vivo.
For data set [18], the system named is Mus musculus. Kind of data set: AUC(infinity) in mouse at 10 mg/kg, ip. Particulars: in vivo. Type of data set: ADME, organism-based. The arrangement: dose 10 mg/kg, time infinity, route intraperitoneal.
Data set [19] in a line: Clearance in mouse at 1 mg/kg, iv. The data set is classed as ADME, organism-based. Particulars: in vivo.
A short description of data set [20]: Volume of distribution at steady state in mouse at 1 mg/kg, iv. Particulars: in vivo, read-out: Vdss. Type of data set: ADME, organism-based.
Data set [21] in a line: Oral bioavailability in mouse at 10 mg/kg. The data set is classed as ADME, organism-based. Particulars: in vivo.
For data set [22], the system named is Mus musculus. Put plainly: Bioavailability in mouse at 10 mg/kg, ip. Type of data set: ADME, organism-based. To be noted: in vivo.

Consider `CC1(C)CCc2cc(S(=O)(=O)N(CC(=O)O)C3(c4cccc(-c5cc(Cl)cc(Cl)c5)c4)CCC3)ccc2O1`, for which the inhibition result in data set [1] and in data set [2] was “inactive” in each case. For the same compound, it took 40 nM to reach half-maximal inhibition in [3] (IC50). The remaining at 10 min, 3 µM in data set [4] was 79%; in data set [5] it was 70%; in data set [6], 77%. In [7], this compound displayed an Activity of 140%. Moreover, the results for the half-life in data set [8], in data set [9] and in data set [10] were 34.8 min, 59.4 min and 79.8 min, respectively. Also, in data set [11], the area under the curve AUC(0-inf) (in general, the area under the concentration-time curve extrapolated to infinity) was found to be 1.52 µM·h. Further, the highest concentration (Cmax) (usually the maximum level reached in the sampled fluid or tissue) in data set [12] was 274 nM; in data set [13], 941 nM; in [14] it was 2860 nM. Further, the Tmax (commonly the time at which the peak concentration occurs) in data set [15] amounted to 30 min; in [16], 37.8 min. Also, the AUC (commonly concentration integrated over time) in the data set on Mus musculus [17] is 0.173 µM·h; with Mus musculus [18], 5.784 µM·h. Moreover, the clearance (usually the rate of elimination divided by the concentration) in data set [19] came to 169 mL/min/kg. Further, the Vd in data set [20] is 7.42 L/kg. Moreover, the bioavailability – broadly, dose-corrected exposure relative to a reference, in per cent – in [21] is 88%. For the same compound, the F with Mus musculus [22] was determined as 100%.
